Experimental data taken from patent US7074922B2, “Method for producing the tautomeric form of (1) of 2,4,6-trianilino-p-(carbo-1′-ethylhexyl-1′oxyl)-1, 3, 5-triazine” (BASF Aktiengesellschaft, priority 2002, dated 2006).

Test: Storage stability of solutions in cosmetic oils (clouding and precipitation)
Format: physicochemical
Settings: after 2 days
Text: Storage Stability of Solutions of the Tautomeric Form I in Cosmetic Oils
Both solutions were still clear after 2 days.

appearance of solution on storage (solution in C8–C10-coconut fatty acid triglyceride): still clear | appearance of solution on storage (solution in cetylstearyl 2-ethylhexanoate): still clear
Structure (SMILES): CCCCC(CC)COC(=O)c1ccc(Nc2nc(Nc3ccc(C(=O)OCC(CC)CCCC)cc3)nc(Nc3ccc(C(=O)OCC(CC)CCCC)cc3)n2)cc1 (centres unmarked) [I, 2,4,6-trianilino-p-(carbo-2′-ethylhexyl-1′-oxy)-1,3,5-triazine]
